Data published in the kinase profiling compilation of Christmann-Franck et al. (2016).

Experiments:
Assay in all cases: KINOMEscan competition binding
Conditions in all cases: compound 10.0 µM
ACVR1 (human) = ACVR1 (human) (UniProt Q04771)
ADCK3 (human) = ADCK3 (human) (UniProt Q8NI60)
AKT2 (human) = AKT2 (human) (UniProt P31751)
CAMK1D (human) = CAMK1D (human) (UniProt Q8IU85)
CAMK2A (human) = CAMK2A (human) (UniProt Q9UQM7)
CDK4 CCND1 (human) = CDK4 CCND1 (human) (UniProt P11802+P24385)
CDK4 CCND3 (human) = CDK4 CCND3 (human) (UniProt P11802+P30281)
CDKL5 (human) = CDKL5 (human) (UniProt O76039)
CLK3 (human) = CLK3 (human) (UniProt P49761)
EPHA5 (human) = EPHA5 (human) (UniProt P54756)
FGR (human) = FGR (human) (UniProt P09769)
GRK7 (human) = GRK7 (human) (UniProt Q8WTQ7)
[1] = biological target: JAK1 JH1 catalytic (human) (UniProt P23458)
[2] = biological target: JAK2 JH1 catalytic (human) (UniProt O60674)
MAP3K3 (human) = MAP3K3 (human) (UniProt Q99759)
MAP3K4 (human) = MAP3K4 (human) (UniProt Q9Y6R4)
MAPK1 (human) = MAPK1 (human) (UniProt P28482)
MAPK6 (human) = MAPK6 (human) (UniProt Q16659)
MARK1 (human) = MARK1 (human) (UniProt Q9P0L2)
MYO3A (human) = MYO3A (human) (UniProt Q8NEV4)
NEK1 (human) = NEK1 (human) (UniProt Q96PY6)
PIM3 (human) = PIM3 (human) (UniProt Q86V86)
PRKACA (human) = PRKACA (human) (UniProt P17612)
PRKCQ (human) = PRKCQ (human) (UniProt Q04759)
PTK2B (human) = PTK2B (human) (UniProt Q14289)
RIOK3 (human) = RIOK3 (human) (UniProt O14730)
RPS6KA5 KD2 (human) = RPS6KA5 KD2 (human) (UniProt O75582)
RPS6KA6 KD2 (human) = RPS6KA6 KD2 (human) (UniProt Q9UK32)
RPS6KB1 (human) = RPS6KB1 (human) (UniProt P23443)
STK32B (human) = STK32B (human) (UniProt Q9NY57)
STK39 (human) = STK39 (human) (UniProt Q9UEW8)
STK4 (human) = STK4 (human) (UniProt Q13043)
VRK2 (human) = VRK2 (human) (UniProt Q86Y07)
WEE2 (human) = WEE2 (human) (UniProt P0C1S8)
CDC42BPG (human) = CDC42BPG (human) (UniProt Q6DT37)
HIPK4 (human) = HIPK4 (human) (UniProt Q8NE63)
[3] = system: KIT (human), P10721 [V559D/V654A]
MYLK3 (human) = MYLK3 (human) (UniProt Q32MK0)
NTRK2 (human) = NTRK2 (human) (UniProt Q16620)
PI4KB (human) = PI4KB (human) (UniProt Q9UBF8)

Sequence of EPHA5 (human) (P54756 whole entry, looked up): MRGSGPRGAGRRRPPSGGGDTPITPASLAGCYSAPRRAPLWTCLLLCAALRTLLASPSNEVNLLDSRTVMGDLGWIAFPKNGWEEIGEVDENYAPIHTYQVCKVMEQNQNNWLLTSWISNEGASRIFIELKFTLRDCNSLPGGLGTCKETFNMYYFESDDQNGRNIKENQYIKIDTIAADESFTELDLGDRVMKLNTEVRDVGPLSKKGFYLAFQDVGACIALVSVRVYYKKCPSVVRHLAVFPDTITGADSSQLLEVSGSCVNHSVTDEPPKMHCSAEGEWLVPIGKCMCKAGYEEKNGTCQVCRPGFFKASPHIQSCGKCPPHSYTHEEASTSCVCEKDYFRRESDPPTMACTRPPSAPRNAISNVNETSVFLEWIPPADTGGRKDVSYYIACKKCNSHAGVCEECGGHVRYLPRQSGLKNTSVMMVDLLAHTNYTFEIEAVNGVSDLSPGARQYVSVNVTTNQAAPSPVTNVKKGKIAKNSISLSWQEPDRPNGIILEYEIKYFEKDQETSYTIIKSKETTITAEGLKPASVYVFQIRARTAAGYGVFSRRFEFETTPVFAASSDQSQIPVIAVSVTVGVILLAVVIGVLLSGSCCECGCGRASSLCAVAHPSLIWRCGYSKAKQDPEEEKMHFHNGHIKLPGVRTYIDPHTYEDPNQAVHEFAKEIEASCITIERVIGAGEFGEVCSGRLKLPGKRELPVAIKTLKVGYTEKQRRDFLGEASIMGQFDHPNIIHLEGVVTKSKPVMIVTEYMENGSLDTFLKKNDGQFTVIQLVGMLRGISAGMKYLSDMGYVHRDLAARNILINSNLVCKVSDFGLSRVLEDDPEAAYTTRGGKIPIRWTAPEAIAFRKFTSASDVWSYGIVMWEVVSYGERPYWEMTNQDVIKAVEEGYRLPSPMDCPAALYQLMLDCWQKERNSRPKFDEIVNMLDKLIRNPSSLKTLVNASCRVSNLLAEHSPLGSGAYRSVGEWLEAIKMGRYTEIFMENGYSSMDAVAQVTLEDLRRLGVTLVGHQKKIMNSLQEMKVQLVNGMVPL
Sequence of ACVR1 (human) (Q04771 whole entry, looked up): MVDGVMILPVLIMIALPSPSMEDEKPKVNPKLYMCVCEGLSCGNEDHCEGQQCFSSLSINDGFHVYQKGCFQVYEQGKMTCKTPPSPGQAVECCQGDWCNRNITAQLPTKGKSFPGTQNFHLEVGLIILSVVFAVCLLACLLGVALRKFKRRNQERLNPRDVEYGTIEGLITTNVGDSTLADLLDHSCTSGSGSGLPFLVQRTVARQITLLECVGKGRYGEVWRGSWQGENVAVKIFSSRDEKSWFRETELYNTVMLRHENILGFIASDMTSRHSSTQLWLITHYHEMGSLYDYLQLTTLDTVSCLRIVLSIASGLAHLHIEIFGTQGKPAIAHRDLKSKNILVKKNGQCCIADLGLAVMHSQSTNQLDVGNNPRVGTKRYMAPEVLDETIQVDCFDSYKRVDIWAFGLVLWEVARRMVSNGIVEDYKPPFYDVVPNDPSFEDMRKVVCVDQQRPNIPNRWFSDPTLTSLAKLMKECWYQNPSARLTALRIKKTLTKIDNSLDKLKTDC
Sequence of RPS6KB1 (human) (P23443 whole entry, looked up): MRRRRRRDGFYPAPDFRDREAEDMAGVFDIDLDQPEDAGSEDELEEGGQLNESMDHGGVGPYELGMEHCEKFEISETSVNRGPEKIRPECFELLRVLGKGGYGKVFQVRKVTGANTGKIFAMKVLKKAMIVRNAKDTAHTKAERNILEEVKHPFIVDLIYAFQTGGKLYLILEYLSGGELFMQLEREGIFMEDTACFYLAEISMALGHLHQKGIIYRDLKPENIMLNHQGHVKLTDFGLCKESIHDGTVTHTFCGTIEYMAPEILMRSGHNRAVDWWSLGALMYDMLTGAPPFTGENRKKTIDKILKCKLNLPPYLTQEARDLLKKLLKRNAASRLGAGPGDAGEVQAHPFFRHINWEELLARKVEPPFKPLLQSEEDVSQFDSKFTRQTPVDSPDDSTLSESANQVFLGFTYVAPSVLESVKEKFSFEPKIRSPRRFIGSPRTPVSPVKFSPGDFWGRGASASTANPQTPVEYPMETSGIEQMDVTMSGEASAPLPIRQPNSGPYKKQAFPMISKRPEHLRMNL
Sequence of STK32B (human) (Q9NY57 whole entry, looked up): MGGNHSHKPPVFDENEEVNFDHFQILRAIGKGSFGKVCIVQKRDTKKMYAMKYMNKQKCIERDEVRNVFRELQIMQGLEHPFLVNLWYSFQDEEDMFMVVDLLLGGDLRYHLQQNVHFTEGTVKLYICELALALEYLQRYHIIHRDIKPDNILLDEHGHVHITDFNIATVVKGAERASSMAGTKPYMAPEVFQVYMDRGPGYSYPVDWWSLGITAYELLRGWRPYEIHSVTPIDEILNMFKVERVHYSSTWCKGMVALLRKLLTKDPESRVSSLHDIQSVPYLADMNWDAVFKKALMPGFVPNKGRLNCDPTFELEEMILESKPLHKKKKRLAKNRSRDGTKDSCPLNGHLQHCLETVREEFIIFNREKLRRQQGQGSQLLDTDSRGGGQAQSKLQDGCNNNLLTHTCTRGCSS
Sequence of MYO3A (human) (Q8NEV4 whole entry, looked up): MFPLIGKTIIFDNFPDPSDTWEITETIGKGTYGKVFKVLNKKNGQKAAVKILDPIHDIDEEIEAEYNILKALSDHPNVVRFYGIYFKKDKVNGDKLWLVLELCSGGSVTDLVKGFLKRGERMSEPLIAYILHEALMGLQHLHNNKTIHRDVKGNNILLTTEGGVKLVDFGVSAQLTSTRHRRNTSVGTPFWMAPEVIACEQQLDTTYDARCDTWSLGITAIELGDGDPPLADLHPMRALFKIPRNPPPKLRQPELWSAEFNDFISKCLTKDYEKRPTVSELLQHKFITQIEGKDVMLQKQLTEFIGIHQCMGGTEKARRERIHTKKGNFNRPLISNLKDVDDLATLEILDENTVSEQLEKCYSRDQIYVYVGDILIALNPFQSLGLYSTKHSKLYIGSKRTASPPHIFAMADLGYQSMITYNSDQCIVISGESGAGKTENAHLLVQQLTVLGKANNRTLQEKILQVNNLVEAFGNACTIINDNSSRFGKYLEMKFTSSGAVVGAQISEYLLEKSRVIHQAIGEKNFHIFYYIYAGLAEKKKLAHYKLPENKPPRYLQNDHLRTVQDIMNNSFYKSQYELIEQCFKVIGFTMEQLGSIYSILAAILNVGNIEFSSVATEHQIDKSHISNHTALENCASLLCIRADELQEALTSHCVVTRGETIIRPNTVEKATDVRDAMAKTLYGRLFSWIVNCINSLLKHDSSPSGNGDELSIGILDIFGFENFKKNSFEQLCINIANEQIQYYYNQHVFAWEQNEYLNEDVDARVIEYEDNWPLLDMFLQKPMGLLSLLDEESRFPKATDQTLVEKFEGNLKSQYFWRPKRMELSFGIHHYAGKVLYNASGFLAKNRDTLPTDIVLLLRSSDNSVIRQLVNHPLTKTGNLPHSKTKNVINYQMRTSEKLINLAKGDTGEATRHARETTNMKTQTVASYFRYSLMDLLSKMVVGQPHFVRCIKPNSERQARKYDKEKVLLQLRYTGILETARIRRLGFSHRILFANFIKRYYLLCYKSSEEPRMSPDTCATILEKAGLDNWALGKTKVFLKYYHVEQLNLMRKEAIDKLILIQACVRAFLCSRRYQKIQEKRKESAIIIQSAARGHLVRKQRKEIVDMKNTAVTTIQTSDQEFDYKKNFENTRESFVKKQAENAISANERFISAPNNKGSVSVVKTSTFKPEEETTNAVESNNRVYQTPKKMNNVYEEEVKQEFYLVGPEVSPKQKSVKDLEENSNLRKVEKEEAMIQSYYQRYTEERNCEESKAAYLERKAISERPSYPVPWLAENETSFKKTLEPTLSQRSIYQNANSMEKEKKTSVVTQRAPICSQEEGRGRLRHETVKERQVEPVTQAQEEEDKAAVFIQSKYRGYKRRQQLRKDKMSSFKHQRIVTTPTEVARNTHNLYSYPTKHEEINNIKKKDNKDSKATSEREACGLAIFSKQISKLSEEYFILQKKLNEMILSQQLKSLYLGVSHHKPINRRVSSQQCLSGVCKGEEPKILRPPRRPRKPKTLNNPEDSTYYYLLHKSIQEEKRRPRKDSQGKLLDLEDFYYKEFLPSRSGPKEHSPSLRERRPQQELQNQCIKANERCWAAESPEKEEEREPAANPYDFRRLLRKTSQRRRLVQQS
Sequence of RIOK3 (human) (O14730 whole entry, looked up): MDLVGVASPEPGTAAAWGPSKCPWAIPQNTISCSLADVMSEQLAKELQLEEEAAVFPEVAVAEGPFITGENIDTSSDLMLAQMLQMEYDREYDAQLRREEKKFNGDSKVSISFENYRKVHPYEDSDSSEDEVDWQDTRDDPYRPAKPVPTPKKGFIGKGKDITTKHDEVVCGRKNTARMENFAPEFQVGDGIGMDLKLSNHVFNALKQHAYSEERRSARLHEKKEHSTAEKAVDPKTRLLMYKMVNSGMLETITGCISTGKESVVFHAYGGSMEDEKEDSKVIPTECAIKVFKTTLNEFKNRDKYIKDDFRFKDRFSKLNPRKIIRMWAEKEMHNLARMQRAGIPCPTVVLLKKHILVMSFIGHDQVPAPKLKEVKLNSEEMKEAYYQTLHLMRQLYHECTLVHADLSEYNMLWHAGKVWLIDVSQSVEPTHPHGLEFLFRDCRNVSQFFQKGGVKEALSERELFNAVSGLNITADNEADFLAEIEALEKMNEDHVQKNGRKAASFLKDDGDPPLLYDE
Sequence of CAMK1D (human) (Q8IU85 whole entry, looked up): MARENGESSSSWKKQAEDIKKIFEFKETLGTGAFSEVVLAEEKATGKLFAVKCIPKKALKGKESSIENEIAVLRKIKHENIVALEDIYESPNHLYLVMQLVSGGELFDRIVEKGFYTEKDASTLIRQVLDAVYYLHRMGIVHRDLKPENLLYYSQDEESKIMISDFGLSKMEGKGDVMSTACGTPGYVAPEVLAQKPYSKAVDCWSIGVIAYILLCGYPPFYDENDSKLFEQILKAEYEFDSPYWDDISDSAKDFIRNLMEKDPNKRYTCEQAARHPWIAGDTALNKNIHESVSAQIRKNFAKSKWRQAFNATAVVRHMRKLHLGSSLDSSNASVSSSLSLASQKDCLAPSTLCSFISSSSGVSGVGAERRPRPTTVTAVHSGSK

Structure (SMILES): CNC(=O)c1cc(Oc2ccc(NC(=O)Nc3ccc(Cl)c(C(F)(F)F)c3)cc2)ccn1
- kinase still bound, per cent of control (ACVR1 (human)): 100%
- kinase still bound, per cent of control (ADCK3 (human)): 100%
- kinase still bound, per cent of control (AKT2 (human)): 70%
- kinase still bound, per cent of control (CAMK1D (human)): 96%
- kinase still bound, per cent of control (CAMK2A (human)): 94%
- kinase still bound, per cent of control (CDK4 CCND1 (human)): 65%
- kinase still bound, per cent of control (CDK4 CCND3 (human)): 79%
- kinase still bound, per cent of control (CDKL5 (human)): 56%
- kinase still bound, per cent of control (CLK3 (human)): 91%
- kinase still bound, per cent of control (EPHA5 (human)): 30%
- kinase still bound, per cent of control (FGR (human)): 53%
- kinase still bound, per cent of control (GRK7 (human)): 100%
- kinase still bound, per cent of control [1]: 50%
- kinase still bound, per cent of control [2]: 80%
- kinase still bound, per cent of control (MAP3K3 (human)): 86%
- kinase still bound, per cent of control (MAP3K4 (human)): 98%
- kinase still bound, per cent of control (MAPK1 (human)): 100%
- kinase still bound, per cent of control (MAPK6 (human)): 100%
- kinase still bound, per cent of control (MARK1 (human)): 100%
- kinase still bound, per cent of control (MYO3A (human)): 67%
- kinase still bound, per cent of control (NEK1 (human)): 88%
- kinase still bound, per cent of control (PIM3 (human)): 80%
- kinase still bound, per cent of control (PRKACA (human)): 63%
- kinase still bound, per cent of control (PRKCQ (human)): 84%
- kinase still bound, per cent of control (PTK2B (human)): 100%
- kinase still bound, per cent of control (RIOK3 (human)): 100%
- kinase still bound, per cent of control (RPS6KA5 KD2 (human)): 100%
- kinase still bound, per cent of control (RPS6KA6 KD2 (human)): 38%
- kinase still bound, per cent of control (RPS6KB1 (human)): 63%
- kinase still bound, per cent of control (STK32B (human)): 100%
- kinase still bound, per cent of control (STK39 (human)): 100%
- kinase still bound, per cent of control (STK4 (human)): 81%
- kinase still bound, per cent of control (VRK2 (human)): 100%
- kinase still bound, per cent of control (WEE2 (human)): 87%

Structure (SMILES): C[C@@H](Oc1cc(-c2cnn(C3CCNCC3)c2)cnc1N)c1c(Cl)ccc(F)c1Cl
- kinase still bound, per cent of control (ACVR1 (human)): 0.6%
- kinase still bound, per cent of control (ADCK3 (human)): 53%
- kinase still bound, per cent of control (AKT2 (human)): 100%
- kinase still bound, per cent of control (CAMK1D (human)): 37%
- kinase still bound, per cent of control (CAMK2A (human)): 100%
- kinase still bound, per cent of control (CDC42BPG (human)): 48%
- kinase still bound, per cent of control (CDK4 CCND1 (human)): 51%
- kinase still bound, per cent of control (CDK4 CCND3 (human)): 39%
- kinase still bound, per cent of control (CDKL5 (human)): 25%
- kinase still bound, per cent of control (EPHA5 (human)): 1.8%
- kinase still bound, per cent of control (FGR (human)): 6.8%
- kinase still bound, per cent of control (GRK7 (human)): 42%
- kinase still bound, per cent of control (HIPK4 (human)): 15%
- kinase still bound, per cent of control [1]: 0.45%
- kinase still bound, per cent of control [2]: 1.4%
- kinase still bound, per cent of control [3]: 100%
- kinase still bound, per cent of control (MAP3K4 (human)): 34%
- kinase still bound, per cent of control (MAPK1 (human)): 100%
- kinase still bound, per cent of control (MAPK6 (human)): 90%
- kinase still bound, per cent of control (MARK1 (human)): 36%
- kinase still bound, per cent of control (MYLK3 (human)): 100%
- kinase still bound, per cent of control (MYO3A (human)): 66%
- kinase still bound, per cent of control (NEK1 (human)): 56%
- kinase still bound, per cent of control (NTRK2 (human)): 0.2%
- kinase still bound, per cent of control (PI4KB (human)): 100%
- kinase still bound, per cent of control (PIM3 (human)): 100%
- kinase still bound, per cent of control (PRKACA (human)): 100%
- kinase still bound, per cent of control (PRKCQ (human)): 88%
- kinase still bound, per cent of control (RIOK3 (human)): 3.4%
- kinase still bound, per cent of control (RPS6KA5 KD2 (human)): 95%
- kinase still bound, per cent of control (RPS6KA6 KD2 (human)): 35%
- kinase still bound, per cent of control (RPS6KB1 (human)): 1.8%
- kinase still bound, per cent of control (STK32B (human)): 100%
- kinase still bound, per cent of control (STK39 (human)): 99%
- kinase still bound, per cent of control (STK4 (human)): 3.9%
- kinase still bound, per cent of control (VRK2 (human)): 100%
- kinase still bound, per cent of control (WEE2 (human)): 100%

Structure (SMILES): COc1cc2ncn(-c3cc(OCc4ccccc4C(F)(F)F)c(C(N)=O)s3)c2cc1OC
- kinase still bound, per cent of control (ACVR1 (human)): 60%
- kinase still bound, per cent of control (ADCK3 (human)): 61%
- kinase still bound, per cent of control (AKT2 (human)): 100%
- kinase still bound, per cent of control (CAMK1D (human)): 100%
- kinase still bound, per cent of control (CAMK2A (human)): 76%
- kinase still bound, per cent of control (CDC42BPG (human)): 64%
- kinase still bound, per cent of control (CDK4 CCND1 (human)): 91%
- kinase still bound, per cent of control (CDK4 CCND3 (human)): 100%
- kinase still bound, per cent of control (CDKL5 (human)): 73%
- kinase still bound, per cent of control (CLK3 (human)): 83%
- kinase still bound, per cent of control (EPHA5 (human)): 90%
- kinase still bound, per cent of control (FGR (human)): 63%
- kinase still bound, per cent of control (GRK7 (human)): 52%
- kinase still bound, per cent of control (HIPK4 (human)): 15%
- kinase still bound, per cent of control [1]: 100%
- kinase still bound, per cent of control [2]: 48%
- kinase still bound, per cent of control [3]: 100%
- kinase still bound, per cent of control (MAP3K3 (human)): 74%
- kinase still bound, per cent of control (MAP3K4 (human)): 90%
- kinase still bound, per cent of control (MAPK1 (human)): 86%
- kinase still bound, per cent of control (MAPK6 (human)): 64%
- kinase still bound, per cent of control (MARK1 (human)): 82%
- kinase still bound, per cent of control (MYLK3 (human)): 100%
- kinase still bound, per cent of control (MYO3A (human)): 81%
- kinase still bound, per cent of control (NEK1 (human)): 65%
- kinase still bound, per cent of control (NTRK2 (human)): 59%
- kinase still bound, per cent of control (PI4KB (human)): 100%
- kinase still bound, per cent of control (PIM3 (human)): 63%
- kinase still bound, per cent of control (PRKACA (human)): 100%
- kinase still bound, per cent of control (PTK2B (human)): 72%
- kinase still bound, per cent of control (RIOK3 (human)): 4.2%
- kinase still bound, per cent of control (RPS6KA5 KD2 (human)): 76%
- kinase still bound, per cent of control (RPS6KB1 (human)): 65%
- kinase still bound, per cent of control (STK32B (human)): 100%
- kinase still bound, per cent of control (STK39 (human)): 89%
- kinase still bound, per cent of control (STK4 (human)): 56%
- kinase still bound, per cent of control (VRK2 (human)): 87%
- kinase still bound, per cent of control (WEE2 (human)): 100%
